EC50 data for 45 molecules are collected here from BindingDB's records for doi:10.1021/acs.jmedchem.0c00807 (University of Oxford, 2020).

Each structure is given as a SMILES string. pEC50: −log10 of the molar value.

The nature of the assay: Modulation of human utrophinA expressed in mouse H2K cells assessed as upregulation of utrophin production after 24 hrs by luciferase reporter gene assay. On the technique in general: A reporter such as luciferase makes a cellular process visible.
Take `COP(=O)(c1ccc2oc(-c3ccc4ccccc4c3)nc2c1)C(C)C` (stereo not given): the pEC50 – broadly, the EC50 on a negative log10 scale, so that one unit is a factor of ten – is 7.47.

Consider `COP(=O)(c1ccc2oc(-c3ccc4ccccc4c3)nc2c1)C(C)(C)C` (stereo not given), for which the pEC50 is 6.83.

Consider `CCP(=O)(OC)c1ccc2oc(-c3ccc(F)cc3F)nc2c1` (stereo not given), for which the pEC50 is 6.11.

As for `CNS(=O)(=O)c1ccc2oc(-c3ccc4ccccc4c3)nc2c1`, the pEC50 is 6.84.

For the molecule `O=S1(=O)CCCN1c1ccc2oc(-c3ccc4ccccc4c3)nc2c1`, the pEC50 is 6.96.

With `CCOP(=O)(CC)c1ccc2oc(-c3ccc4ccccc4c3)nc2c1` (stereo not given), the pEC50 was 7.59.

As for `CCS(=O)(=O)c1ccc2oc(-c3ccc4ccccc4c3)nc2c1` [BMN 195], the pEC50 was 6.73.

For the molecule `CCP(=O)(OC)c1ccc2oc(-c3cccc(F)c3)nc2c1` (stereo not given), the pEC50 is 6.08.

For the molecule `CCP(=O)(OC)c1ccc2oc(-c3ccc(Cl)cc3)nc2c1` (stereo not given), the pEC50 was 6.95.

Consider `CCP(=O)(OC)c1ccc2nc(-c3cccc(F)c3)oc2c1` (stereo not given), for which the pEC50 was 5.65.

Take `COP(=O)(c1ccccc1)c1ccc2oc(-c3ccc(F)cc3)nc2c1` (stereo not given): the pEC50 was 6.08.

Regarding `CCP(=O)(OC)c1ccc2nc(-c3ccc4ccncc4c3)oc2c1` (stereo not given), the pEC50 is 5.94.

For the molecule `CCP(=O)(OC)c1ccc2nc(-c3cccc(Cl)c3Cl)oc2c1` (stereo not given), the pEC50 was 5.71.

On to `CCP(=O)(OC)c1ccc2oc(-c3ccc(C(F)(F)F)o3)nc2c1` (stereo not given), for which the pEC50 is 5.75.

With `COP(=O)(c1ccc2oc(-c3ccc(F)cc3)nc2c1)C(C)C` (stereo not given), the pEC50 was 6.52.

Turning to `CCP(=O)(OC)c1ccc2oc(-c3ccc4ncccc4c3)nc2c1` (stereo not given), the pEC50 is 6.79.

For `CCP(=O)(OC)c1ccc2oc(-c3cccc(Cl)c3F)nc2c1` (stereo not given), the pEC50 is 6.70.

For `CCP(=O)(OC)c1ccc2oc(-c3cccc(Cl)c3Cl)nc2c1` (stereo not given), the pEC50 is 6.61.

Take `COP(=O)(c1ccc2nc(-c3ccc4ccccc4c3)oc2c1)C(C)C` (stereo not given): the pEC50 was 6.63.

On to `CCP(=O)(OC)c1ccc2oc(-c3ccccc3C(F)(F)F)nc2c1` (stereo not given), for which the pEC50 is 6.06.

With `CCP(=O)(OC)c1ccc2nc(-c3ccc4ncccc4c3)oc2c1` (stereo not given), the pEC50 is 7.07.

On to `COP(=O)(c1ccc2nc(-c3ccc(F)cc3)oc2c1)C(C)C` (stereo not given), for which the pEC50 is 5.82.

For the molecule `CCP(=O)(OC)c1ccc2nc(-c3cnc4ccccc4c3)oc2c1` (stereo not given), the pEC50 was 7.15.

`CCP(=O)(OC)c1ccc2oc(-c3ccc4ccccc4c3)nc2c1` (stereo not given): the pEC50 is 8.40.

For `CCP(=O)(OC)c1ccc2oc(-c3sccc3Cl)nc2c1` (stereo not given), the pEC50 is 5.82.

With `CCP(=O)(OC)c1ccc2oc(-c3c(F)ccc(Cl)c3F)nc2c1` (stereo not given), the pEC50 is 5.75.

As to `CCP(=O)(OC)c1ccc2oc(/C=C/c3ccccc3)nc2c1` (stereo not given), the pEC50 was 6.79.

With `CCP(=O)(OC)c1ccc2oc(-c3ccc4cnccc4c3)nc2c1` (stereo not given), the pEC50 is 5.94.

`CCP(=O)(OC)c1ccc2nc(/C=C/c3ccccc3)oc2c1` (stereo not given): the pEC50 is 6.12.

Take `CCP(=O)(OC)c1ccc2oc(-c3cnc4ccccc4c3)nc2c1` (stereo not given): the pEC50 is 7.21.

`CCP(=O)(OC)c1ccc2oc(-c3ccc(C(F)(F)F)cc3)nc2c1` (stereo not given): the pEC50 was 6.26.

Take `CCP(=O)(OC)c1ccc2nc(-c3ccc4cccnc4c3)oc2c1` (stereo not given): the pEC50 is 6.03.

Turning to `CCP(=O)(OC)c1ccc2nc(-c3ccc4cnccc4c3)oc2c1` (stereo not given), the pEC50 was 5.75.

Regarding `CCP(=O)(OC)c1ccc2oc(-c3ccc4cccnc4c3)nc2c1` (stereo not given), the pEC50 was 6.80.

Consider `CCP(=O)(OC)c1ccc2nc(-c3ccc(F)cc3)oc2c1` (stereo not given), for which the pEC50 is 5.91.

As for `CCP(=O)(OC)c1ccc2oc(-c3ccc4ccncc4c3)nc2c1` (stereo not given), the pEC50 is 6.48.

For the molecule `CCP(=O)(OC)c1cccc2oc(-c3ccc(F)cc3)nc12` (stereo not given), the pEC50 is 5.92.

As for `CC(C)C(=O)Nc1ccc2oc(-c3ccc4ccccc4c3)nc2c1`, the pEC50 is 7.42.

Consider `CCOP(=O)(CC)c1ccc2oc(-c3ccc(F)cc3)nc2c1` (stereo not given), for which the pEC50 was 5.90.

With `CCP(=O)(OC)c1ccc2oc(-c3ccc(Cl)c(Cl)c3)nc2c1` (stereo not given), the pEC50 was 6.93.

As to `CCP(=O)(OC)c1ccc2oc(-c3ccc(Cl)s3)nc2c1` (stereo not given), the pEC50 was 6.77.

As to `CCP(=O)(OC)c1ccc2nc(-c3ccc(F)cc3F)oc2c1` (stereo not given), the pEC50 is 5.75.

Consider `CCOP(=O)(CC)c1ccc2nc(-c3ccc4ccccc4c3)oc2c1` (stereo not given), for which the pEC50 was 6.97.

Take `CCP(=O)(OC)c1ccc2nc(-c3ccc4ccccc4c3)oc2c1` (stereo not given): the pEC50 was 7.15.

On to `CC(=O)Nc1ccc2oc(-c3ccc4ccccc4c3)nc2c1`, for which the pEC50 was 8.00.
